Results reported in ChEMBL document CHEMBL3774347, “Docking and Linking of Fragments To Discover Jumonji Histone Demethylase Inhibitors” (J Med Chem, 2016).
Active and inactive are the calls of the source. The calls are words filed in the database; no cut-off is given here.

What was measured:
[1] = molecular target: T1, Lysine-specific demethylase 4C (Homo sapiens, UniProt Q9H3R0); test: Inhibition of N-terminal His6-tagged KDM4C (1 to 352 residues) (unknown origin) expressed in Escherichia coli Rosetta 2(DE3)pLysS using biotinylated histone H3 (1 to 21 residues) lysine 9 trimethylated peptide/50 uM alpha-ketoglutarate as substrate/cofactor measured after 45 mins by TR-FRET assay
T1 sequence (Q9H3R0 whole entry): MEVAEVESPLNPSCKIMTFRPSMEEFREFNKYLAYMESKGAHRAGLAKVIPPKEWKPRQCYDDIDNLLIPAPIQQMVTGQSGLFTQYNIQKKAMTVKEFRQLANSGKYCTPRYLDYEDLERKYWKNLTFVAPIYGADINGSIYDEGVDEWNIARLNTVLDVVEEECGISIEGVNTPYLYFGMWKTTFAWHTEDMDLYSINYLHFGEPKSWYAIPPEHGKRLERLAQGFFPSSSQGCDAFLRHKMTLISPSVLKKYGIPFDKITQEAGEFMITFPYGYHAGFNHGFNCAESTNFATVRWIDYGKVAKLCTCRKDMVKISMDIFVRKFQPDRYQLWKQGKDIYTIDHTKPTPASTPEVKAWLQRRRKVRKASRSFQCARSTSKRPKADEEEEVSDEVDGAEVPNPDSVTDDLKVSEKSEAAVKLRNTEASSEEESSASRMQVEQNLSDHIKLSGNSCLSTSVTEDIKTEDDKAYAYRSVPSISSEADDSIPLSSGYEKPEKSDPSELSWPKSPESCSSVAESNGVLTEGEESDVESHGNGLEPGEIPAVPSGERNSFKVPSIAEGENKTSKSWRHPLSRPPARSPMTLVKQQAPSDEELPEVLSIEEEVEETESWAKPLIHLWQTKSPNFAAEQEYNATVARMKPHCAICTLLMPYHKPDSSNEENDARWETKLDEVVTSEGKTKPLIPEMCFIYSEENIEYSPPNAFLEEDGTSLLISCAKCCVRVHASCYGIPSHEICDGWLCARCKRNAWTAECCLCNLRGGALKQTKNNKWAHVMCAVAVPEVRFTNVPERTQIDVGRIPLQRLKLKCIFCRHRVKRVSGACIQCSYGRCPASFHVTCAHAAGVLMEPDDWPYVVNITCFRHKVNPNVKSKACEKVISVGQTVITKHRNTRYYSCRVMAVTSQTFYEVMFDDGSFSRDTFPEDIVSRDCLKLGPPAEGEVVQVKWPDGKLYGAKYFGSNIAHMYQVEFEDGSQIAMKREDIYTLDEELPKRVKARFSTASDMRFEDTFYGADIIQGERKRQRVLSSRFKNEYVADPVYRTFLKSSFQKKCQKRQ

[2] = molecular target: T1, Lysine-specific demethylase 4C; test: (§1) Inhibition of N-terminal His6-tagged KDM4C (1 to 352 residues) (unknown origin) expressed in Escherichia coli Rosetta 2(DE3)pLysS using biotinylated histone H3 (1 to 21 residues) lysine 9 trimethylated peptide/2 uM alpha-ketoglutarate as substrate/cofactor measured after 45 mins by TR-FRET assay
[3] = molecular target: T2, Lysine-specific demethylase 4C (Homo sapiens) (UniProt Q9H3R0); test: Binding affinity to N-terminal His6-tagged KDM4C (1 to 352 residues) (unknown origin) expressed in Escherichia coli Rosetta 2(DE3)pLysS at 1.7 mM by SYPRO Orange dye based thermal shift assay
T2 sequence (whole entry): T1 sequence (Q9H3R0 whole entry)

[4] = Inhibition of AmpC beta-lactamase (unknown origin)
[5] = molecular target: T2, Lysine-specific demethylase 4C (Homo sapiens); test: as §1
[6] = Induction of aggregates formation assessed as particle formation up to 10 uM by dynamic light scattering method

Work on `O=C(Cc1ccccc1)Nc1ccc(O)c(-c2cc(C(=O)O)ccn2)c1` yielded an IC50 ([1]; read-out: IC50) of 17 µM and an IC50 ([2]; read-out: IC50) of 0.43 µM.

For `Cc1ccccc1CNc1ccc(O)c(C(=O)O)c1`, the Activity [3] was “Active” and the inhibition [4] was “inactive”.

With `O=C(O)c1ccnc(-c2cc(NC(=O)c3ccccc3O)ccc2O)c1` the IC50 ([2]; read-out: IC50) was 4.6 µM.

`Nc1ccc(O)c(-c2cc(C(=O)O)ccn2)c1` showed an IC50 ([2]; read-out: IC50) of 8.3 µM.

In the case of `CC(=O)Nc1ccc(O)c(C(=O)O)c1`, the inhibition [5] is reported as “inactive”.

For `CC(=O)Nc1ccc(O)c(-c2ccccn2)c1`, the IC50 [1] was “Not Active” and the IC50 [2] was “Not Active”.

Molecule `CCNC(=S)Nc1ccc(O)c(C(=O)O)c1` has an IC50 ([2]; read-out: IC50) of 165 µM.

`CCCNC(=O)NC(C)(C)C(=O)O` gave an IC50 ([2]; read-out: IC50) of 126 µM.

Work on `O=C(O)c1cc(NCc2cccc3c2OCO3)ccc1O` yielded an IC50 ([2]; read-out: IC50) of 15 µM.

For `Cn1nccc1CNc1ccc(O)c(-c2cc(C(=O)O)ccn2)c1`, the IC50 ([2]; read-out: IC50) was 0.77 µM.

Work on `NC(=O)N[C@H](Cc1c[nH]c2ccccc12)C(=O)O` yielded an IC50 ([2]; read-out: IC50) of 54.7 µM.

With `O=C(O)CNC(=O)c1ccc2ccccc2n1` the IC50 ([2]; read-out: IC50) was 2810 µM.

Work on `O=C(O)c1ccnc(-c2cc(NC(=O)c3ccno3)ccc2O)c1` yielded an IC50 ([2]; read-out: IC50) of 1.02 µM.

`N#Cc1ccc(O)c(-c2cc(C(=O)O)ccn2)c1` gave an IC50 ([2]; read-out: IC50) of 6 µM.

For `O=C(O)Cn1nnnc1COc1ccccc1`, the IC50 ([2]; read-out: IC50) was 2320 µM.

With `O=C(O)[C@@H]1CC(=O)N(c2nccs2)C1` the IC50 ([2]; read-out: IC50) was 676 µM.

In the case of `O=C(O)c1ccnc(-c2cc(NC(=O)c3cccc(O)c3)ccc2O)c1`, the IC50 ([2]; read-out: IC50) is reported as 0.46 µM.

With `O=C(Cc1cccc(Br)c1)Nc1ccc(O)c(-c2cc(C(=O)O)ccn2)c1` the IC50 ([1]; read-out: IC50) was 3.4 µM and the IC50 ([2]; read-out: IC50) was 0.17 µM.

For `Cn1nccc1CNc1ccc(O)c(C(=O)O)c1`, the IC50 ([2]; read-out: IC50) was 58 µM and the Activity [6] was “inactive”.

Work on `CC(=O)N[C@@H](CCC(=O)O)C(=O)O` yielded an IC50 ([2]; read-out: IC50) of 2070 µM.

Molecule `O=C(O)c1ccnc(-c2cc(NCc3cccc4c3OCO4)ccc2O)c1` has an IC50 ([2]; read-out: IC50) of 0.56 µM.

Work on `CC(=O)c1ccccc1-c1cc(C(=O)O)ccn1` yielded an IC50 ([2]; read-out: IC50) of 507 µM.

For `COc1ccc(CC(=O)Nc2ccc(O)c(-c3cc(C(=O)O)ccn3)c2)cc1`, the IC50 ([1]; read-out: IC50) was 3.7 µM and the IC50 ([2]; read-out: IC50) was 0.069 µM.

For `O=C(O)c1ccnc(-c2cc(NCc3ccc(Br)cc3)ccc2O)c1`, the IC50 ([2]; read-out: IC50) was 2.5 µM.

For `CN1CCN(C(=O)c2ccn(CC(=O)O)n2)CC1`, the IC50 ([2]; read-out: IC50) was 387 µM.

With `COCC(=O)Nc1ccc(O)c(C(=O)O)c1` the IC50 ([2]; read-out: IC50) was 98 µM and the Activity [6] was “inactive”.

`Cc1cc(O)c2c(CC(=O)O)cc(=O)oc2c1` gave an IC50 ([2]; read-out: IC50) of 176 µM.

For `COc1ccc(N)cc1-c1cc(C(=O)O)ccn1`, the IC50 ([2]; read-out: IC50) was 310 µM.

`NC(=O)N[C@@H](Cc1c[nH]c2ccccc12)C(=O)O` gave an IC50 ([2]; read-out: IC50) of 18.6 µM.

In the case of `C[C@@H](NC(=O)c1cc(Cl)ccn1)C(=O)O`, the IC50 ([2]; read-out: IC50) is reported as 1210 µM.
